# Assay results taken from PMC10820890, “Potential of Tryptamine Derivatives as Multi-Target Directed Ligands for Alzheimer’s Disease: AChE, MAO-B, and COX-2 as Molecular Targets” (Molecules, 2024).
# Where two headings read alike, the source gives them in different places.
# Experiments:
# Human recombinant COX-2 = target: T1, Human recombinant COX-2 (Homo sapiens, UniProt P35354); experiment: In vitro fluorometric COX-2 inhibition assay kit; format: biochemical; settings: compounds tested at 100 µM, mean of three independent measurements; for inhibition at 100 µM: read-out: COX-2 (%Inhibition ± SD)
# T1 construct: purchased BioVision (kit manual cited); the text also says reagents came from Sigma-Aldrich K547
# T1 sequence (P35354 18-604): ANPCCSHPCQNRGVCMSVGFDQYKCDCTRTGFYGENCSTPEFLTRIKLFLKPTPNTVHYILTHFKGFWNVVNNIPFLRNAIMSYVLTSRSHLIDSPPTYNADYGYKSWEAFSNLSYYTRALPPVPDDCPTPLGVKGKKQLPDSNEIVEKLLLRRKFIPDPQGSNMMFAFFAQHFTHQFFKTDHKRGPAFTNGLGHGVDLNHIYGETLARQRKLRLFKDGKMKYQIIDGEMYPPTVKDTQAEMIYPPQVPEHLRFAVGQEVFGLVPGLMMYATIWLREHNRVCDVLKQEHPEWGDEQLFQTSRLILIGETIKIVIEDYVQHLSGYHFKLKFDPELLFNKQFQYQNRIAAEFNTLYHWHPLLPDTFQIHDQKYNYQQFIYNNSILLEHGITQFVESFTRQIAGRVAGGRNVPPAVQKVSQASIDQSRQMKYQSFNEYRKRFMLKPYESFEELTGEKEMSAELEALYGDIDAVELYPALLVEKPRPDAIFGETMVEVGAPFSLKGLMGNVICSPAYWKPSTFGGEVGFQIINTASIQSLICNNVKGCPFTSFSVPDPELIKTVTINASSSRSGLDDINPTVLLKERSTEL
# Method: The fluorometric COX-2 inhibition assay kit provides a simple, fast, sensitive, and consistent method appropriate for carrying out high-throughput analysis for COX-2 inhibitors. The assay is based on the formation of prostaglandin G2 (PG2), which is an intermediate made from arachidonic acid under the action of the COX-2 enzyme. The reagents were prepared, and testing procedures were executed according to these recommended guidelines. The fluorescence of the samples was measured in an opaque 96-well plate at a temperature of 37 °C, precisely 5 min after the initiation of the experiment, utilizing a microplate reader from Thermo Scientific, USA. All compounds were tested at a concentration of 100 µM in a DMSO-1% solution. […] Dilutions were prepared in sodium phosphate buffer 0.1 M, pH 7.4. All the reagents were purchased from Sigma-Aldrich, St. Louis, MO, USA. The mean fluorescence values were calculated to determine the percentage of inhibition achieved by each compound. […] Each experiment was conducted in triplicate, and the percent inhibition was calculated using the following formula: % Inhibition=fluorescence of control−fluorescence of test compound/fluorescence of control×100
# AChE from electric eel = AChE from electric eel (Electrophorus electricus, UniProt O42275); experiment: biochemical; settings: mean of three independent measurements, read-out: AChE (IC50 ± SD)
# Sequence of AChE from electric eel (O42275 24-633): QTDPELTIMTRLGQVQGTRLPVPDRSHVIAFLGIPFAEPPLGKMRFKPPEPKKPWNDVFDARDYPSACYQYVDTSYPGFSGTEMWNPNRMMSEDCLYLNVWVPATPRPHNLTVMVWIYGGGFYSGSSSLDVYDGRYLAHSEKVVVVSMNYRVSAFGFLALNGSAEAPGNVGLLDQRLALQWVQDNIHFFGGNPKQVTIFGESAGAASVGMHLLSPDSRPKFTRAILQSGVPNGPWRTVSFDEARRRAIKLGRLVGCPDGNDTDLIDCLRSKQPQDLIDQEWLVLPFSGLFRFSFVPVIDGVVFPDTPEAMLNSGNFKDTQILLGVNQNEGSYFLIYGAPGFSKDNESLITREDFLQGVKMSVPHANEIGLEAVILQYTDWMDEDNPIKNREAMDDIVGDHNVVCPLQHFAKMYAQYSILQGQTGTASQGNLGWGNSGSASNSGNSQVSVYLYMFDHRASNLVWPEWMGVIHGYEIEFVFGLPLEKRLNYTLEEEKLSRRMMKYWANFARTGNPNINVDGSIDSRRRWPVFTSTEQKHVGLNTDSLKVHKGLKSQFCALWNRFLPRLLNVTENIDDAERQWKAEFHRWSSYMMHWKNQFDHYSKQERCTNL
# Description: The AChE inhibitory potential of the synthesized tryptamine derivatives was investigated using a modified Ellman’s method. In this enzymatic assay, thiocholine, the product of enzymatic hydrolysis, lacks a substantial chromophore for UV detection. Therefore, Ellman’s reagent (DTNB) was employed as the chromogenic chemical. Ellman’s procedure for the in vitro acetylcholinesterase inhibition assay is based on a two-step reaction involving the chemical components DTNB (5,5-dithiobis(2-nitro) benzoic acid), a hydrolyzed substrate (thiocholine), and the enzyme AChE [59]. In the first step, the substrate acetylthiocholine iodide undergoes hydrolysis catalyzed by the AChE enzyme, resulting in the formation of thiocholine and acetic acid. In the second step, TNB (5-thio-2-nitrobenzoic acid) is generated by the reaction between Ellman’s reagent (DTNB) and thiocholine through an electron-shifting process to sulfur. […] Higher enzyme activity is reflected by an increase in absorbance at this wavelength. The formation of TNB is directly associated with the hydrolysis of acetylthiocholine iodide. Each reaction was initiated by taking a 2 mL working solution, which consisted of 150 µL of the sample (either test compounds or positive control), 50 µL of 0.22 units/mL acetylcholinesterase enzyme from electric eel origin (AChE, E.C. 3.1.1.7, in lyophilized powder, ≥1000 unit), and sodium phosphate buffer (0.1 M, pH 7.4), making it up to a total of 2 mL. The working solution was then incubated at room temperature ([…]) for 15 min, after which 1 mL of Ellman’s solution (200 µL of 75 mM ACTI and 500 µL of 10 mM DTNB in 15 mL sodium phosphate buffer) was added. The stock solutions of tryptamine analogs were prepared in dimethyl sulfoxide (DMSO) 100%. […] All chemicals were purchased from Sigma-Aldrich, St. Louis, MO, USA and TCI Tokyo Chemical Industry Co., Ltd., Saitama, Japan. […] A negative control reaction was also performed under the same conditions but without the inclusion of samples. In this assay, the blank consisted of sodium phosphate buffer. Each experiment was conducted in triplicate.
# The percentage of acetylcholinesterase inhibition activity for each tested dilution was calculated using the following equation: Percent inhibition activity%=Absorbance of control−Absorbance of test/Absorbanec of control×100
# The results were then presented in a tabular format as the mean IC50 ± SD. The IC50 values, which represent the half-maximal inhibitory concentration, were determined by creating a graph that relates different concentrations (µM) to the percent inhibition (%) using the linear regression method provided by GraphPad Prism software 7 [61, 62, 63].
# [1] = target: T2, MAO-B extracted from the rat brain (Rattus norvegicus, UniProt P19643); experiment: MAO-B inhibition, Amplex Red monoamine oxidase assay kit; format: biochemical
# T2 construct: Synaptosomes containing the MAO enzyme were isolated from the rat brain; from tissue; host or cells: rat brain synaptosomes (Dawley rats)
# T2 sequence (P19643 1-520): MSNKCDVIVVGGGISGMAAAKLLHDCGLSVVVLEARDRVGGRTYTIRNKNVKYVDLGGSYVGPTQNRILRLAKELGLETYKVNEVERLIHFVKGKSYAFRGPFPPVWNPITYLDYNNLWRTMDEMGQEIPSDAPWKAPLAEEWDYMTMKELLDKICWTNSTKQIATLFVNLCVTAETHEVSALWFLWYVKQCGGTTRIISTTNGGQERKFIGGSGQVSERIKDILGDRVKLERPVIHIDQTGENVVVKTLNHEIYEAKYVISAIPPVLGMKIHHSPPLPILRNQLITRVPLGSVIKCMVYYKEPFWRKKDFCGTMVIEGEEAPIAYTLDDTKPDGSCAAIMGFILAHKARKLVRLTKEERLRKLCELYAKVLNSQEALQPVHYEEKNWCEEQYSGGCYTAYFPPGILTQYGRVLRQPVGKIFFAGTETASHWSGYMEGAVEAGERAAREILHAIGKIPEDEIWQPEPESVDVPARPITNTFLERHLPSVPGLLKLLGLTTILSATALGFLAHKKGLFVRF
# Description: Synaptosomes containing the MAO enzyme were isolated from the rat brain by the method of Hojas, with some modification. Three Dawley rats of any sex with weight ranging from 200–250 gm were decapitated after administration of an anesthetic agent (mixture of propofol and xylocaine). Immediately, complete brains were removed from the bed of ice on a petri dish, and the brains were washed with ice-chilled PBS (phosphate-buffered saline) of pH 7.0, 0.1M and normal saline. Then, each brain, weighing approximately 1 g, was suspended into 10 mL of ice-chilled […] sucrose pH 7.4 20% w/v accordingly and homogenized for 10 min using Daihan homogenizer HG-15A. Brain homogenate was transferred into a centrifuge tube and centrifuged at a speed of 7500× g rpm for 15 min at 4 °C by a Scan Speed 1730R Microcentrifuge from Labo Gene, Marlborough, MA, USA. The supernatant was preserved, and the solid brain mass debris present on the bottom was discarded. The supernatant was then diluted with ice-chilled distilled PBS as per need and centrifuged over 12,000× g rpm for 20 min at 4 °C through the mentioned microcentrifuge. Then, pellets containing a white solid mass at the bottom (synaptosomes containing the MAO enzyme) were stored, and each pallet was diluted with PBS buffer. Aliquoting of synaptosomes was carried out and stored at −70 °C till the assay was performed.
# For the evaluation of the MAO-B inhibition potential of synthesized compounds, the Amplex® Red Monoamine Oxidase Assay kit was purchased from Invitrogen Molecular Probes, Thermo Fisher Scientific, Waltham, MA, USA. This is a one-step fluorometric bioassay that principally detects the resorufin (7-Hydroxy-3H-phenoxazin-3-one), which is a fluorescent moiety formed in the presence of Horseradish Peroxidase (HRP) by the oxidation of nonfluorescent compound Amplex Red (AMR), chemically known as 10-acetyl-3,7-dihydroxyphenoxazine. The hydrogen peroxide (H2O2) was synthesized during the conversion of substrate to its aldehyde product by MAO enzyme action. […] The assay was performed according to the instruction of the manufacturer (http://tools.thermofisher.com/content/sfs/manuals/mp12214.pdf; accessed on 20 October 2020), with a few modifications. The Amplex Red reagent kit was used as compared to other H2O2 detection probes because of its stability and the stability of resorufin, which is a reaction product along with the longer wavelength spectra. Extracted MAO-B enzyme from rat brain was diluted in sodium phosphate buffer of pH 7.4, 0.25 M. The substrate for MAO-B was benzylamine. Pargyline was used as a standard. All the stock solutions of inhibitors were prepared in dimethyl sulfoxide (DMSO) 100%. Different dilutions of inhibitors were prepared in reaction buffer to obtain less than 2% (v/v) DMSO for evading false positive results. The final reaction volume contained a two-fold lower concentration of enzyme and the inhibitors. […] H2O2 working solution was diluted in the reaction buffer to prepare a final concentration of 10 µM H2O2 and used as positive control, and the reaction buffer with no H2O2 was the negative control. The reaction was started by adding 100 µL of working solution in each well of a black, opaque, 96-well microplate holding the controls and samples. A total of 50 µL of the MAO enzyme solution was added into each well. The composition of the working solution was 400 µM Amplex Red reagent, reaction buffer, 2 U/mL HRP, and 2 mM substrate solution. The possible interference that can be produced by the fluorescence of the compounds generated within the reaction mixture because of non enzymatic inhibition was eradicated by the addition of samples with Amplex Red only in the reaction buffer. The fluorescence of the blank (control with no enzyme) was subtracted to correct the background fluorescence. All the reactions were incubated at 37 °C for 30 min. […]
# [2] = MAO-B extracted from rat brain, substrate benzylamine, mean of three independent measurements, read-out: MAO-B (IC50 ± SD)
Compound,inhibition at 100 µM (Human recombinant COX-2),IC50 (AChE from electric eel),"IC50 [1, 2]",COX-2 (%Inhibition ± SD) (Human recombinant COX-2; 100 µM),IC50 [1]
O=C(CNCCc1c[nH]c2ccccc12)c1ccc(F)cc1F [SR13],73.8 ± 2.37%,9.68 ± 0.16 µM,50.6 ± 0.64 µM,–,–
O=C(CNCCc1c[nH]c2ccccc12)c1ccc(F)cc1 [SR10],> 70%,1 ± 0.08 µM,216.1 ± 0.29 µM,–,–
Cc1ccc(C(=O)CNCCc2c[nH]c3ccccc23)cc1 [SR14],65.3 ± 2.65%,68.71 ± 0.24 µM,112.2 ± 0.29 µM,–,–
O=C(NCCc1c[nH]c2ccccc12)c1cc([N+](=O)[O-])cc([N+](=O)[O-])c1 [SR42],> 70%,0.7 ± 0.21 µM,43.2 ± 0.46 µM,–,–
O=C(CNCCc1c[nH]c2ccccc12)c1cccc([N+](=O)[O-])c1 [SR22],84.1 ± 4.53%,54.88 ± 0.19 µM,56.46 ± 0.41 µM,–,–
O=C(CNCCc1c[nH]c2ccccc12)c1ccc2ccccc2c1 [SR08],72.3 ± 1.67%,4.36 ± 0.12 µM,244.2 ± 1 µM,–,–
NCCc1c[nH]c2ccccc12 [Tryptamine],57.3 ± 4.96%,88.26 ± 0.24 µM,288.1 ± 0.32 µM,–,–
O=C(CNCCc1c[nH]c2ccccc12)c1ccc([N+](=O)[O-])cc1 [SR23],69.4 ± 3.11%,7.33 ± 0.12 µM,95.1 ± 0.43 µM,71.40 ± 3.11%,–
COc1ccc(C(=O)CNCCc2c[nH]c3ccccc23)cc1 [SR17],72.8 ± 2.54%,8.23 ± 0.12 µM,150.1 ± 0.26 µM,–,–
O=C(CNCCc1c[nH]c2ccccc12)c1ccccc1[N+](=O)[O-] [SR21],34.4 ± 3.34%,87.73 ± 0.16 µM,142.1 ± 0.32 µM,–,–
O=C(CNCCc1c[nH]c2ccccc12)c1ccc(O)c(O)c1 [SR20],68.7 ± 3.86%,24.97 ± 0.05 µM,222.1 ± 0.32 µM,–,–
O=C(CCNCCc1c[nH]c2ccccc12)c1ccccc1 [SR25],> 70%,0.17 ± 0.02 µM,–,–,85.1 ± 0.26 µM
"C#CCN(C)Cc1ccccc1 [Pargyline, reference compound]",–,–,23.4 ± 0.32 µM,–,–
O=C(CNCCc1c[nH]c2ccccc12)c1ccc(-c2ccccc2)cc1 [SR24],79.3 ± 2.02%,6.7 ± 0.08 µM,–,–,133.2 ± 0.46 µM
